# Measured values published in ChEMBL document CHEMBL4130624, “Optimization of 1,4-Oxazine β-Secretase 1 (BACE1) Inhibitors Toward a Clinical Candidate” (J Med Chem, 2018).
# Assays:
# Rattus norvegicus [1] = test: Toxicity in Sprague-Dawley rat assessed as induction of tissue damage at 225 mg/kg/day, po administered via gavage for 1 month; assay type: organism-based; conditions: in vivo
# [2] = Fraction unbound in human plasma at 5 uM after 4.5 hrs by HPLC-MS/MS method based rapid equilibrium dialysis; assay type: ADME, cell-free
# Canis familiaris [3] = test: Toxicity in Beagle dog assessed as induction of appearance changes at 0.63 to 20 mg/kg, po qd for 1 day; assay type: organism-based, Canis lupus familiaris; conditions: in vivo, 24 h
# Canis familiaris [4] = test: Antialzheimer activity in po dosed Beagle dog assessed as reduction in amyloid beta (1 to 40) levels measured after 1 hr post dose by ELISA; assay type: functional, organism-based, Canis lupus familiaris
# Rattus norvegicus [5] = test: Toxicity in Sprague-Dawley rat assessed as drug tolerability at 25 to 75 mg/kg/day, po measured after 1 month repeated dosing; assay type: organism-based; conditions: in vivo
# Canis familiaris [6] = test: Toxicity in beagle dog assessed as induction of tremors at 70 to 250 mg/kg/day, po qd for 1 week; assay type: organism-based, Canis lupus familiaris; conditions: in vivo, 168 h
# [7] = Cmax in male Beagle dog at 70 mg/kg, po measured after 1 month repeated dosing by LC-MS/MS analysis; conditions: in vivo
# [8] = Toxicity in Sprague-Dawley rat administered daily via oral gavage for 1 month; assay type: organism-based; conditions: in vivo
# [9] = Ratio of drug level in lung to plasma of Sprague-Dawley rat at 10 mg/kg, po; assay type: ADME, organism-based
# hERG (KCNH2) = hERG (KCNH2) (Homo sapiens, UniProt Q12809); test: Inhibition of human ERG expressed in HEK293 cells assessed as reduction in outward potassium current at 3 uM at holding potential was -80 mV after 5 mins by patch clamp assay; assay type: cell-based; conditions: HEK293 cells that express hERG
# Chain of hERG (KCNH2) (Q12809 whole entry): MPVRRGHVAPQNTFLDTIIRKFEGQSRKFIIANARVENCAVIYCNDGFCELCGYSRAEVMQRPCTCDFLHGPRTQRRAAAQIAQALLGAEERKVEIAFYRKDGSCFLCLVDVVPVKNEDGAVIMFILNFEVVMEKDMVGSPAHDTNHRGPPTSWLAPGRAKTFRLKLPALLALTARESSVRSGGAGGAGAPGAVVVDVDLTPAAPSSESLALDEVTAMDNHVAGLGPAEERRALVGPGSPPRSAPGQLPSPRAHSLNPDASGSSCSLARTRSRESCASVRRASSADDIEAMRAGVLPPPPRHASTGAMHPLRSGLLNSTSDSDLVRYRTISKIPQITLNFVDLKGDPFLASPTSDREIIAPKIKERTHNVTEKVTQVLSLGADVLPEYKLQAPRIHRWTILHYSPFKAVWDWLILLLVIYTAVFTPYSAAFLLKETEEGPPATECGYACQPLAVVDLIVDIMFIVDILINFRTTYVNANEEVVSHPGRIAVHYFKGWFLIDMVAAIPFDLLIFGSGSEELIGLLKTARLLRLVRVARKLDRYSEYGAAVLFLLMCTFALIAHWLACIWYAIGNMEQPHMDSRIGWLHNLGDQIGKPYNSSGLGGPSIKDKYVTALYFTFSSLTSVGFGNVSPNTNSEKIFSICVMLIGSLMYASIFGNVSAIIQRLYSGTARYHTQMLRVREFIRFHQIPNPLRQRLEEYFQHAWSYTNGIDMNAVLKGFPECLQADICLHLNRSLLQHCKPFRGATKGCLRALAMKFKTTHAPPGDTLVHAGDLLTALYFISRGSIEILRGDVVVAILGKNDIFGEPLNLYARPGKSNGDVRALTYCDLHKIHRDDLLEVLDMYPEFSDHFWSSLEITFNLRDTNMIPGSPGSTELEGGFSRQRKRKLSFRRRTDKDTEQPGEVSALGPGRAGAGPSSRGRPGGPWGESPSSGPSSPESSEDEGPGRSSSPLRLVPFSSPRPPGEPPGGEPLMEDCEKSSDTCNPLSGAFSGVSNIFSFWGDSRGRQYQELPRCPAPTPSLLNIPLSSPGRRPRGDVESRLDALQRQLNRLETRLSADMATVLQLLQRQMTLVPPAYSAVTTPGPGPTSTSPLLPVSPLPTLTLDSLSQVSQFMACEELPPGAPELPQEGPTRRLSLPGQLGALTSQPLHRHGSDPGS
# Salmonella typhimurium [10] = test: Mutagenicity in Salmonella typhimurium TAmix up to 500 ug/ml in presence of rat liver S9 fraction by Ames 2 assay; assay type: toxicity, organism-based; conditions: salmonella enterica subsp. enterica serovar typhimurium
# [11] = Ratio of drug level in kidney to plasma of Sprague-Dawley rat at 10 mg/kg, po; assay type: ADME, organism-based
# [12] = Tmax in Swiss mouse at 10 mg/kg, po administered as bolus dose by LC-MS/MS analysis; assay type: ADME, organism-based; conditions: in vivo
# [13] = Oral bioavailability in Sprague-Dawley rat at 10 mg/kg administered as bolus dose by LC-MS/MS analysis; assay type: ADME, organism-based; conditions: in vivo
# [14] = Clearance in Sprague-Dawley rat at 2.5 mg/kg, iv administered as bolus dose by LC-MS/MS analysis; assay type: ADME, organism-based; conditions: in vivo
# Canis familiaris [15] = test: Toxicity in beagle dog assessed as induction of reduction in general activity at 70 to 250 mg/kg/day, po qd for 1 week; assay type: organism-based, Canis lupus familiaris; conditions: in vivo, 168 h
# Cytochrome P450 1A2 = Cytochrome P450 1A2 (Homo sapiens, UniProt P05177); test: Reversible inhibition of recombinant human CYP1A2 by fluorescence-based assay; assay type: ADME
# Chain of Cytochrome P450 1A2 (P05177 whole entry): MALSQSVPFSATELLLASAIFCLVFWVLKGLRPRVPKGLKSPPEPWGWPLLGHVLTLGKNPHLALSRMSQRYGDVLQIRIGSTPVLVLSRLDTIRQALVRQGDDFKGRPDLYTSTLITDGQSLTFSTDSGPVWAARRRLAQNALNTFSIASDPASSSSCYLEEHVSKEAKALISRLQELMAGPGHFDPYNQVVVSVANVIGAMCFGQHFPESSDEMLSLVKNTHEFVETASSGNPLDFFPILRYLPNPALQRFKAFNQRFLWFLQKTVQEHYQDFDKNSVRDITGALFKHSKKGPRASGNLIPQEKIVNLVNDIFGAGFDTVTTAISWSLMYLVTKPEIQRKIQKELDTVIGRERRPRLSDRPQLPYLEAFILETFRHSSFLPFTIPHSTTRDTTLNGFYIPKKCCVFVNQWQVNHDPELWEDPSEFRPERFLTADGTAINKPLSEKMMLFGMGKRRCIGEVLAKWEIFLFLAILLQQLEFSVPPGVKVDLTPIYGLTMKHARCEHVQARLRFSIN
# [16] = Volume of distribution at steady state in Sprague-Dawley rat at 2.5 mg/kg, iv administered as bolus dose by LC-MS/MS analysis; assay type: ADME, organism-based; conditions: in vivo, read-out: Vdss
# Mus musculus = test: Systemic clearance in Swiss mouse at 2.5 mg/kg, iv administered as bolus dose by LC-MS/MS analysis relative to liver blood flow; assay type: ADME, organism-based; conditions: in vivo
# Cavia porcellus = test: Cardiotoxicity in anesthetized guinea pigs assessed as QTcB prolongation at plasma concentration of 11500 ng/ml dosed up to 10 mg/kg, iv administered over a period of 5 min at 15 min interval by ECG analysis (reference value: 7%); assay type: toxicity, organism-based; conditions: guinea pig, in vivo
# [17] = AUC (0 to 24 hrs) in male Sprague-Dawley rat at 75 mg/kg, po measured after 1 month repeated dosing by LC-MS/MS analysis; assay type: ADME, organism-based; design: time < 24 hr, dose 75 mg/kg, route oral; conditions: in vivo
# [18] = AUC (0 to infinity) in Beagle dog at 10 mg/kg, po administered as bolus dose by LC-MS/MS analysis; assay type: ADME, organism-based, Canis lupus familiaris; design: dose 10 mg/kg, time infinity, route oral; conditions: in vivo
# [19] = Safety index, ratio of NOAEL for cardiotoxicity in anesthetized guinea pigs assessed as free drug level causing QTcB prolongation dosed up to 10 mg/kg, iv administered over a period of 5 min at 15 mins interval by ECG analysis to EC50 for Antialzheimer activity in po dosed Beagle dog assessed as reduction in amyloid beta (1 to 40) levels measured after 1 hr post dose by ELISA; assay type: toxicity, organism-based; conditions: guinea pig, in vivo
# [20] = Ratio of fEC50 for antialzheimer activity in po dosed Beagle dog assessed as reduction in amyloid beta (1 to 40) levels to Inhibition of BACE1 (1 to 454 residues) (unknown origin); assay type: functional
# Rattus norvegicus [21] = test: Toxicity in Sprague-Dawley rat assessed as phospholipidosis at 225 mg/kg/day, po administered via gavage for 1 month followed by 1 month recovery period; assay type: organism-based; conditions: in vivo
# Rattus norvegicus [22] = test: Toxicity in Sprague-Dawley rat assessed as effect on body weight at 225 mg/kg/day, po administered via gavage for 1 month; assay type: organism-based; conditions: in vivo
# [23] = Fraction unbound in mouse plasma at 5 uM after 4.5 hrs by HPLC-MS/MS method based rapid equilibrium dialysis; assay type: ADME, cell-free
# Cytochrome P450 2C19 = Cytochrome P450 2C19 (Homo sapiens, UniProt P33261); test: Reversible inhibition of recombinant human CYP2C19 by fluorescence-based assay; assay type: ADME
# Chain of Cytochrome P450 2C19 (P33261 whole entry): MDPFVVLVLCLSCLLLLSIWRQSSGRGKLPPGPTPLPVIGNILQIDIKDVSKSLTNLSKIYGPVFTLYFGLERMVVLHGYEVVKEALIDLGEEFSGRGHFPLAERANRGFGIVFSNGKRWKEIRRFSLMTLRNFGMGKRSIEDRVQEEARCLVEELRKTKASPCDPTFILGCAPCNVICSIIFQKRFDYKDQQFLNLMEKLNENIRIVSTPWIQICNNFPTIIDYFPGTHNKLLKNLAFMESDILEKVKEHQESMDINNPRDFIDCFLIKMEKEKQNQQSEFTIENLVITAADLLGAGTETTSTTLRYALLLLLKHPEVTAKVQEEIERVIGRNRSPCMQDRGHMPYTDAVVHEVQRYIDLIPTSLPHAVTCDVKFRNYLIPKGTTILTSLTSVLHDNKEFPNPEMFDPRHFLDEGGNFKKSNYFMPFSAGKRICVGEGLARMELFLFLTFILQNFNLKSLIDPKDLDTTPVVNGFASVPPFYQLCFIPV
# HepG2 = test: Cytotoxicity against human HepG2 cells assessed as effect on cell health indicators after 72 hrs by automated fluorescence microscopy based high content screening based assay; assay type: ADME; conditions: hepg2, 72 h
# [24] = Cmax in female Beagle dog at 70 mg/kg, po measured after 1 month repeated dosing by LC-MS/MS analysis; conditions: in vivo
# [25] = Cmax in male Sprague-Dawley rat at 75 mg/kg, po measured after 1 month repeated dosing by LC-MS/MS analysis; assay type: ADME, organism-based; design: dose 75 mg/kg, route oral; conditions: in vivo
# Canis familiaris [26] = test: Toxicity in male beagle dog assessed as reduction in RBC parameters at 250 mg/kg/day, po qd for 1 month; assay type: organism-based, Canis lupus familiaris; conditions: in vivo
# Rattus norvegicus [27] = test: Toxicity in Sprague-Dawley rat assessed as effect on food consumption at 225 mg/kg/day, po administered via gavage for 1 month; assay type: organism-based; conditions: in vivo
# [28] = biological target: Kappa-type opioid receptor (Cavia porcellus) (UniProt P41144); test: Inhibition of Dunkin Hartley guinea pig kappa-type opioid receptor at 10 uM after 5 mins
# Chain of Kappa-type opioid receptor (Cavia porcellus) (P41144 whole entry): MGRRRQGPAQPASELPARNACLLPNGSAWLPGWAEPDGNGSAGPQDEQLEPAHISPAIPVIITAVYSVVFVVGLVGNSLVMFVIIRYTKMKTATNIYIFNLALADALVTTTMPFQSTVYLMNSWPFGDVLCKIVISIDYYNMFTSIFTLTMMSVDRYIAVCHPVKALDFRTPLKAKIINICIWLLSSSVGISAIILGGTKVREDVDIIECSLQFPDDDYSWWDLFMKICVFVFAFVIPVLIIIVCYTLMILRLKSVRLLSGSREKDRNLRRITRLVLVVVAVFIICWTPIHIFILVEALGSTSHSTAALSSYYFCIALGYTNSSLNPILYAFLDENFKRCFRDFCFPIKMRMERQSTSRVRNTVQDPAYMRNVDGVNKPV
# Rattus norvegicus [29] = test: Systemic clearance in Sprague-Dawley rat at 2.5 mg/kg, iv administered as bolus dose by LC-MS/MS analysis relative to liver blood flow; assay type: ADME, organism-based; conditions: in vivo
# Canis familiaris [30] = test: Toxicity in Beagle dog assessed as drug tolerability at 0.63 to 20 mg/kg, po qd for 1 day; assay type: organism-based, Canis lupus familiaris; conditions: in vivo, 24 h
# [31] = Cmax in Beagle dog at 10 mg/kg, po administered as bolus dose by LC-MS/MS analysis; assay type: ADME, organism-based, Canis lupus familiaris; design: dose 10 mg/kg, route oral; conditions: in vivo
# Rattus norvegicus [32] = test: Toxicity in Sprague-Dawley rat assessed as induction of pigmentation at 225 mg/kg/day, po administered via gavage for 1 month; assay type: organism-based; conditions: in vivo
# Salmonella typhimurium [33] = test: Mutagenicity in Salmonella typhimurium TA98 up to 500 ug/ml in presence of rat liver S9 fraction by Ames 2 assay; assay type: toxicity, organism-based; conditions: salmonella enterica subsp. enterica serovar typhimurium
# Beta-secretase 1 = Beta-secretase 1 (Homo sapiens, UniProt P56817); test: Inhibition of BACE1 (1 to 454 residues) (unknown origin) using APP derived polypeptide harboring Lys-Met/Asn-Leu mutation as substrate by FRET assay
# Chain of Beta-secretase 1 (P56817 whole entry, the tested form may be a part): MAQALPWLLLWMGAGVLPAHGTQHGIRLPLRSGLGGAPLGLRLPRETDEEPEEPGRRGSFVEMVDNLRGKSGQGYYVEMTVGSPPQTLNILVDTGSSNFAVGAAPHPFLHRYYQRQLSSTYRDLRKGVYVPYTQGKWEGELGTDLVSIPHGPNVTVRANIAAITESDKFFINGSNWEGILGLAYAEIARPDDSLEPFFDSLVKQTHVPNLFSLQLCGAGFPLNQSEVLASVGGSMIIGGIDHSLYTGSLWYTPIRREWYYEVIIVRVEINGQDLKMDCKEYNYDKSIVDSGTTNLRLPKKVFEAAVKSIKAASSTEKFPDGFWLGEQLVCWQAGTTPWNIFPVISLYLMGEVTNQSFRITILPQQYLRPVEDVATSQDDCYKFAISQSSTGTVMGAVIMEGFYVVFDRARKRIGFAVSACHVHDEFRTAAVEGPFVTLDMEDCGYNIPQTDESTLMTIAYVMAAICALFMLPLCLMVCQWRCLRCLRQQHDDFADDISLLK
# [34] = Oral bioavailability in Beagle dog at 10 mg/kg administered as bolus dose by LC-MS/MS analysis; assay type: ADME, organism-based, Canis lupus familiaris; conditions: in vivo
smiles,measurement,setting,value
C[C@]1(c2cc(NC(=O)c3ccc(C#N)cn3)ccc2F)N=C(N)CO[C@H]1C(F)(F)F,Activity,Rattus norvegicus [1],Non-Toxic
same,"fraction unbound at 4.5 h, 5 µM",[2],0.36
same,Activity,Canis familiaris [3],Non-Toxic
same,fEC50,Canis familiaris [4],0.065 µM
same,Activity,Canis familiaris [4]; Canis lupus familiaris,Dose-dependent effect
same,EC50,"Canis familiaris [4]; Canis lupus familiaris, Beagle, 1 h",0.105 µg/mL
same,Activity,Rattus norvegicus [5],Non-Toxic
same,Activity,Canis familiaris [6],Toxic
same,Cmax at 1 month,[7],1970 ng/mL
same,NOAEL at 1 month,[8],75 mg/kg
same,Kp,[9],169
same,"inhibition at 5 min, 3 µM",hERG (KCNH2),22%
same,Activity,Salmonella typhimurium [10],Non-Toxic
same,Kp,[11],19
same,Tmax,[12],1 h
same,bioavailability,[13],36%
same,clearance,[14],47 mL/min/kg
same,Activity,Canis familiaris [15],Toxic
same,IC50,Cytochrome P450 1A2,> 30 µM
same,Vd,[16],11 L/kg
same,CL,Mus musculus,50%
same,Activity,Cavia porcellus,9%
same,AUC at 24 h,[17],13700 ng·h/mL
same,AUC(0-inf),[18],15400 ng·h/mL
same,selectivity ratio,[19],71
same,Ratio,[20],3
same,Activity,Rattus norvegicus [21],Non-Toxic
same,Activity,Rattus norvegicus [22],Non-Toxic
same,"fraction unbound at 4.5 h, 5 µM",[23],0.23
same,IC50,Cytochrome P450 2C19,> 30 µM
same,MTC,HepG2,31.5 µM
same,Cmax at 1 month,[24],2080 ng/mL
same,Cmax at 1 month,[25],1490 ng/mL
same,Activity,Canis familiaris [26],Toxic
same,Activity,Rattus norvegicus [27],Non-Toxic
same,inhibition,[28],76%
same,CL,Rattus norvegicus [29],67%
same,Activity,Canis familiaris [30],Non-Toxic
same,Cmax,[31],1090 nM
same,Activity,Rattus norvegicus [32],Non-Toxic
same,Activity,Salmonella typhimurium [33],Non-Toxic
same,IC50,Beta-secretase 1,0.0222 µM
same,bioavailability,[34],71%
